As usually defined, the inhibition is the relative decrease from the control value, in per cent. The low end stands for little suppression, the high end for strong suppression.

This assay deals with Potassium voltage-gated channel subfamily A member 5 (Homo sapiens) (UniProt P22460). Briefly: Inhibition of Kv1.5 ion channel expressed in HEK293 cells at 10 uM by FLIPR assay. Format: cell-based.
Chain of Potassium voltage-gated channel subfamily A member 5 (Homo sapiens) (P22460 whole entry): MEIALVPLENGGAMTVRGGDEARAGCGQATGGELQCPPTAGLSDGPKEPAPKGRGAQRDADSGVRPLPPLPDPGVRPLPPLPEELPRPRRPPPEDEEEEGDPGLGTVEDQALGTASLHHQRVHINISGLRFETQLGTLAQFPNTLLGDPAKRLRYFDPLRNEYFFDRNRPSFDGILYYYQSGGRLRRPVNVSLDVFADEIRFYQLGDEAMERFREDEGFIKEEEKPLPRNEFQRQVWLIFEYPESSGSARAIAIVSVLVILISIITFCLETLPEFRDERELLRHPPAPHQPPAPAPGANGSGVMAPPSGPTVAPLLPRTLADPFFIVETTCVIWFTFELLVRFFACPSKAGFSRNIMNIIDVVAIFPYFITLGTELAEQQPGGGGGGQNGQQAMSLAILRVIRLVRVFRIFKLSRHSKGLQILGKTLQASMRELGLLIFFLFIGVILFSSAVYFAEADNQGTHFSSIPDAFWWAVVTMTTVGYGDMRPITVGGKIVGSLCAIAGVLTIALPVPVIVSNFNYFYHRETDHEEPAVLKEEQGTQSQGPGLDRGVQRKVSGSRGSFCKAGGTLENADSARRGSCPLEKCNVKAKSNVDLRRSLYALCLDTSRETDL

The molecule `O=C(c1ccc(NS(=O)(=O)c2ccccn2)cc1)N1CCN(c2nc3ccc(F)cc3s2)CC1` had an inhibition of 100%.

Take `O=C(c1cccc(NS(=O)(=O)c2ccccn2)c1)N1CCN(c2nc3ccc(Cl)cc3s2)CC1`: the inhibition worked out at 75.1%.

Consider `O=C(c1ccccc1NS(=O)(=O)c1ccccn1)N1CCN(c2nc3ccc(Br)cc3s2)CC1`, for which the inhibition came out at 100%.

In the case of `O=S(=O)(Nc1ccccc1OCC1CCN(c2nc3ccccc3s2)C1)c1ccccn1` (stereo not given), the inhibition came to 76%.

Turning to `O=S(=O)(Nc1ccccc1OC1CCN(c2nc3ccc(Br)cc3s2)CC1)c1ccccn1`, the inhibition worked out at 100%.
